# Patent US8895585B2, “Nicotinamide derivative or salt thereof” (FUJIFILM Corporation, priority 2010, dated 2014)
# Target: T1, glutathione S-transferase (GST)-fused full-length human Syk protein (Homo sapiens, UniProt P43405)
# T1 construct: (GST)-fused full-length human Syk protein; GST (glutathione S-transferase); purchased Carna Biosciences
# Test: Syk enzyme assay
# Assay type: biochemical
# Details: Syk enzyme assay, Test Example 1; read-out: IC50 of Syk-inhibitory activity
# Summary of the method: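 Baculovirus-expressed enzyme (1.2 ng) was preincubated with compound in HEPES pH 7.0/MgCl2/DTT buffer, 2 min shaking then 13 min at room temperature. Biotin-EDPDYEWPSA-NH2 (0.4 μM final) and ATP (27 μM final) were added for 40 min at room temperature. EDTA stop, streptavidin-XL/PT66-K TR-FRET at 615/665 nm gave IC50.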
row,Structure (SMILES),IC50 [nM]
1,Cc1cc(Nc2nc(NC3CCCCC3N)c(F)cc2C(N)=O)cnc1N1CCOCC1 (centres unmarked) [Example 002-071],10 to 50
2,NC(=O)c1cc(F)c(NC2CCCCC2N)nc1Nc1cnc(N2CCOCC2)c(-c2ccoc2)c1 (centres unmarked) [Example 002-072],10 to 50
3,CN(C)c1ccc(Nc2nc(NC3CCCCC3N)c(F)cc2C(N)=O)cn1 (centres unmarked) [Example 002-074],50 to 100
4,NC(=O)c1cc(F)c(NC2CCCCC2N)nc1Nc1ccc(NCCO)nc1 (centres unmarked) [Example 002-075],10 to 50
5,COCCNc1ccc(Nc2nc(NC3CCCCC3N)c(F)cc2C(N)=O)cn1 (centres unmarked) [Example 002-076],50 to 100
6,NC(=O)c1cc(F)c(NC2CCCCC2N)nc1Nc1ccc(N2CCCC2)nc1 (centres unmarked) [Example 002-078],10 to 50
7,NC(=O)c1cc(F)c(NC2CCCCC2N)nc1Nc1ccc(OCCO)nc1 (centres unmarked) [Example 002-079],50 to 100
8,NC(=O)c1cc(F)c(NC2CCCCC2N)nc1Nc1ccc(NCCCN2CCOCC2)nc1 (centres unmarked) [Example 002-081],10 to 50
9,CCCOc1cc(Nc2nc(NC3CCCCC3N)c(F)cc2C(N)=O)ccn1 (centres unmarked) [Example 002-082],< 10
10,CC(C)COc1cc(Nc2nc(NC3CCCCC3N)c(F)cc2C(N)=O)ccn1 (centres unmarked) [Example 002-084],< 10
11,COC(C)CCOc1cc(Nc2nc(NC3CCCCC3N)c(F)cc2C(N)=O)ccn1 (centres unmarked) [Example 002-085],10 to 50
12,NC(=O)c1cc(F)c(NC2CCCCC2N)nc1Nc1ccnc(OCc2ccccc2)c1 (centres unmarked) [Example 002-086],10 to 50
13,NC(=O)c1cc(F)c(NC2CCCCC2N)nc1Nc1ccc2cc(Cl)cnc2c1 (centres unmarked) [Example 002-087],10 to 50
14,COc1ccc2ccc(Nc3nc(NC4CCCCC4N)c(F)cc3C(N)=O)cc2n1 (centres unmarked) [Example 002-088],< 10
15,COc1ccnc2cc(Nc3nc(NC4CCCCC4N)c(F)cc3C(N)=O)ccc12 (centres unmarked) [Example 002-089],10 to 50
16,COCCOc1ccc2ccc(Nc3nc(NC4CCCCC4N)c(F)cc3C(N)=O)cc2n1 (centres unmarked) [Example 002-090],< 10
17,COCC(C)Oc1ccc2ccc(Nc3nc(NC4CCCCC4N)c(F)cc3C(N)=O)cc2n1 (centres unmarked) [Example 002-091],< 10
18,COC(C)CCOc1ccc2ccc(Nc3nc(NC4CCCCC4N)c(F)cc3C(N)=O)cc2n1 (centres unmarked) [Example 002-092],< 10
19,CCOCCOCCOc1ccc2ccc(Nc3nc(NC4CCCCC4N)c(F)cc3C(N)=O)cc2n1 (centres unmarked) [Example 002-093],< 10
20,NC(=O)c1cc(F)c(NC2CCCCC2N)nc1Nc1cncc(C2CCCC2)c1 (centres unmarked) [Example 002-094],10 to 50
21,NC(=O)c1cc(F)c(NC2CCCCC2N)nc1Nc1cncc(C2=CCCCC2)c1 (centres unmarked) [Example 002-095],< 10
22,NC(=O)c1cc(F)c(NC2CCCCC2N)nc1Nc1cncc(C2CCCCC2)c1 (centres unmarked) [Example 002-096],10 to 50
23,COCC(C)Oc1ccc2cc(Nc3nc(NC4CCCCC4N)c(F)cc3C(N)=O)ccc2n1 (centres unmarked) [Example 002-098],< 10
24,COC(C)CCOc1ccc2cc(Nc3nc(NC4CCCCC4N)c(F)cc3C(N)=O)ccc2n1 (centres unmarked) [Example 002-099],< 10
25,COc1ccc2cc(Nc3nc(NC4CCCCC4N)c(F)cc3C(N)=O)ccc2n1 (centres unmarked) [Example 002-101],< 10
26,COCCOc1nccc2c(Nc3nc(NC4CCCCC4N)c(F)cc3C(N)=O)cccc12 (centres unmarked) [Example 002-102],10 to 50

row,Structure (SMILES),IC50 [nM]
1,CCOc1ccc2cc(Nc3nc(NC4CCCCC4N)c(F)cc3C(N)=O)ccc2n1 (centres unmarked) [Example 002-103],< 10
2,CCCOc1ccc2cc(Nc3nc(NC4CCCCC4N)c(F)cc3C(N)=O)ccc2n1 (centres unmarked) [Example 002-104],< 10
3,CC(C)COc1ccc2cc(Nc3nc(NC4CCCCC4N)c(F)cc3C(N)=O)ccc2n1 (centres unmarked) [Example 002-105],10 to 50
4,CCC(C)COc1ccc2cc(Nc3nc(NC4CCCCC4N)c(F)cc3C(N)=O)ccc2n1 (centres unmarked) [Example 002-106],50 to 100
5,CCOCCOc1ccc2cc(Nc3nc(NC4CCCCC4N)c(F)cc3C(N)=O)ccc2n1 (centres unmarked) [Example 002-107],< 10
6,CCCCOCCOc1ccc2cc(Nc3nc(NC4CCCCC4N)c(F)cc3C(N)=O)ccc2n1 (centres unmarked) [Example 002-108],10 to 50
7,CC(C)COCCOc1ccc2cc(Nc3nc(NC4CCCCC4N)c(F)cc3C(N)=O)ccc2n1 (centres unmarked) [Example 002-109],10 to 50
8,CCCCOCCOCCOc1ccc2cc(Nc3nc(NC4CCCCC4N)c(F)cc3C(N)=O)ccc2n1 (centres unmarked) [Example 002-111],10 to 50
9,NC(=O)c1cc(F)c(NC2CCCCC2N)nc1Nc1ccc2nc(OCC3CCCO3)ccc2c1 (centres unmarked) [Example 002-112],< 10
10,COCCn1c(=O)ccc2cc(Nc3nc(NC4CCCCC4N)c(F)cc3C(N)=O)cnc21 (centres unmarked) [Example 002-116],50 to 100
11,COc1nc2ccc(Nc3nc(NC4CCCCC4N)c(F)cc3C(N)=O)cc2nc1OC (centres unmarked) [Example 002-119],< 10
12,CCOc1nc2ccc(Nc3nc(NC4CCCCC4N)c(F)cc3C(N)=O)cc2nc1OCC (centres unmarked) [Example 002-120],< 10
13,COCCOc1nc2ccc(Nc3nc(NC4CCCCC4N)c(F)cc3C(N)=O)cc2nc1OCCOC (centres unmarked) [Example 002-121],100 to 1000
14,CN1CCOc2nc3ccc(Nc4nc(NC5CCCCC5N)c(F)cc4C(N)=O)cc3nc21 (centres unmarked) [Example 002-122],< 10
15,CCc1nc2ccc(Nc3nc(NC4CCCCC4N)c(F)cc3C(N)=O)cc2nc1CC (centres unmarked) [Example 002-124],< 10
16,CC1CN(c2ccc(Nc3nc(NC4CCCCC4N)c(F)cc3C(N)=O)cn2)CC(C)O1 (centres unmarked) [Example 002-127],10 to 50
17,NCCNCCNc1nc(Nc2ccc3ncccc3c2)c(C(N)=O)cc1F [Example 002-128],100 to 1000
18,NCCNCCNc1nc(Nc2ccnc(-n3nccn3)c2)c(C(N)=O)cc1F [Example 002-129],100 to 1000
19,NCCNCCNc1nc(Nc2ccnc(-n3cncn3)c2)c(C(N)=O)cc1F [Example 002-130],100 to 1000
20,COc1ccccc1-c1cc(Nc2nc(NC3CCCCC3N)c(F)cc2C(N)=O)ccn1 (centres unmarked) [Example 002-132],10 to 50
21,NC(=O)c1cc(F)c(NC2CCCCC2N)nc1Nc1ccnc(-c2ccc(F)cc2F)c1 (centres unmarked) [Example 002-133],< 10
22,Cc1ncc(Nc2nc(NC3CCCCC3N)c(F)cc2C(N)=O)cc1-n1cccn1 (centres unmarked) [Example 002-135],10 to 50
23,COc1ccc(-c2cc(Nc3nc(NC4CCCCC4N)c(F)cc3C(N)=O)ccn2)c(OC)c1 (centres unmarked) [Example 002-136],50 to 100
24,Cc1ncc(Nc2nc(NC3CCCCC3N)c(F)cc2C(N)=O)cc1-n1cncn1 (centres unmarked) [Example 002-138],50 to 100
25,NC(=O)c1cc(F)c(NC2CCCCC2N)nc1Nc1ccc2cc(-n3cccn3)cnc2c1 (centres unmarked) [Example 002-143],< 10
26,NC(=O)c1cc(F)c(NC2CCCCC2N)nc1Nc1ccnc(-c2cc(F)ccc2F)c1 (centres unmarked) [Example 002-145],< 10

row,Structure (SMILES),IC50 [nM]
1,NC(=O)c1cc(F)c(NC2CCCCC2N)nc1Nc1ccnc(-c2cccc(Cl)c2F)c1 (centres unmarked) [Example 002-146],< 10
2,NC(=O)c1cc(F)c(NC2CCCCC2N)nc1Nc1ccnc(-c2cc(Cl)ccc2F)c1 (centres unmarked) [Example 002-147],< 10
3,COc1ncc(Nc2nc(NC3CCCCC3N)c(F)cc2C(N)=O)cc1-c1ccccc1 (centres unmarked) [Example 002-148],10 to 50
4,COc1ncc(Nc2nc(NC3CCCCC3N)c(F)cc2C(N)=O)cc1-c1ccccc1F (centres unmarked) [Example 002-149],10 to 50
5,COc1ncc(Nc2nc(NC3CCCCC3N)c(F)cc2C(N)=O)cc1-c1ccco1 (centres unmarked) [Example 002-150],10 to 50
6,COc1ncc(Nc2nc(NC3CCCCC3N)c(F)cc2C(N)=O)cc1-c1ccoc1 (centres unmarked) [Example 002-151],10 to 50
7,COc1ncc(Nc2nc(NC3CCCCC3N)c(F)cc2C(N)=O)cc1C (centres unmarked) [Example 002-152],10 to 50
8,COc1ncc(Nc2nc(NC3CCCCC3N)c(F)cc2C(N)=O)cc1C1CC1 (centres unmarked) [Example 002-153],10 to 50
9,COc1ncc(Nc2nc(NC3CCCCC3N)c(F)cc2C(N)=O)cc1-n1cccn1 (centres unmarked) [Example 002-154],10 to 50
10,NC(=O)c1cc(F)c(NC2CCCCC2N)nc1Nc1ccc(N2CCCC2=O)nc1 (centres unmarked) [Example 002-156],50 to 100
11,NC(=O)c1cc(F)c(NC2CCCCC2N)nc1Nc1ccc(N2CCCCC2=O)nc1 (centres unmarked) [Example 002-157],100 to 1000
12,CC1(C)Oc2cccnc2N(c2ccc(Nc3nc(NC4CCCCC4N)c(F)cc3C(N)=O)cn2)C1=O (centres unmarked) [Example 002-159],100 to 1000
13,NC(=O)c1cc(F)c(NC2CCCCC2N)nc1Nc1ccc(-n2nccn2)nc1 (centres unmarked) [Example 002-161],50 to 100
14,NC(=O)c1cc(F)c(NC2CCCCC2N)nc1Nc1ccc(N2CCOCC2=O)nc1 (centres unmarked) [Example 002-162],100 to 1000
15,Cc1cc(Nc2nc(NC3CCCCC3N)c(F)cc2C(N)=O)c(F)cn1 (centres unmarked) [Example 002-164],50 to 100
16,NC(=O)c1cc(F)c(NC2CCCCC2N)nc1Nc1cc(N2CCOCC2)ncc1F (centres unmarked) [Example 002-166],100 to 1000
17,NC(=O)c1cc(F)c(NC2CCCCC2N)nc1Nc1ccnc(-c2ccccc2)c1F (centres unmarked) [Example 002-167],10 to 50
18,NC(=O)c1cc(F)c(NC2CCCCC2N)nc1Nc1cc(-c2ccccc2)ncc1F (centres unmarked) [Example 002-168],10 to 50
19,COc1cc(-c2cncc(Nc3nc(NC4CCCCC4N)c(F)cc3C(N)=O)c2)cc(OC)c1OC (centres unmarked) [Example 002-171],50 to 100
20,NC(=O)c1cc(F)c(NC2CCCCC2N)nc1Nc1cncc(-c2ccc(OC(F)(F)F)cc2)c1 (centres unmarked) [Example 002-174],50 to 100
21,NC(=O)c1cc(F)c(NC2CCCCC2N)nc1Nc1ccnc(-c2ccc3c(c2)OCO3)c1 (centres unmarked) [Example 002-176],< 10
22,NC(=O)c1cc(F)c(NC2CCCCC2N)nc1Nc1cncc(-c2ccc3c(c2)NC(=O)CO3)c1 (centres unmarked) [Example 002-177],< 10
23,NC(=O)c1cc(F)c(NC2CCCCC2N)nc1Nc1ccnc(-c2ccc3c(c2)NC(=O)CO3)c1 (centres unmarked) [Example 002-178],< 10
24,NC(=O)c1cc(F)c(NC2CCCCC2N)nc1Nc1cncc(-c2cccc3cnccc23)c1 (centres unmarked) [Example 002-179],50 to 100
25,NC(=O)c1cc(F)c(NC2CCCCC2N)nc1Nc1ccnc(-c2cccc3cnccc23)c1 (centres unmarked) [Example 002-180],50 to 100
